Measured values taken from patent US8399026B2, “Peptides isolated from spider venom, and uses thereof” (priority 2009, dated 2013).
Entries after “also recorded” stand apart in the source; their conditions may differ.

Tests used:
spinal-ligated rats = format: in vivo, rat
Description: This study aimed to evaluate the analgesic indications of compound C using the Chung model of neuropathic pain in rats. This study was performed at PsychoGenics, Inc., headquartered at 765 Old Saw Mill River Road, Tarrytown, N.Y.
Male Sprague Dawley rats (100-125 g) from Harlan (Indianapolis, Ind.) were used in the study. Upon receipt, rats were assigned unique identification numbers and were group housed with 3 rats per cage in polycarbonate cages with micro-isolator filter tops. All rats were examined, handled, and weighed prior to initiation of the study to assure adequate health and suitability. During the course of the study, 12/12 light/dark cycles were maintained, with lights on at 7:00 am EST. The room temperature was maintained between 20 and 23° C. with a relative humidity maintained around 50%. Chow and water were provided ad libitum for the duration of the study.
All compounds were administered at a dose volume of 5 ml/kg, q.d. for 5 days (Days 17-21 post-surgery). Reference compound: Gabapentin (100 mg/kg; TRC, Lot No. 1-SWM-154-1) was dissolved in 0.5% carboxy-methylcellulose (CMC) in water and administered orally. Test Compound: Compound C (0.25, 0.625, and 1.25 mg/kg; Lot n/a) was dissolved in distilled H2O to a stock concentration (20×), divided into single-use aliquots, and frozen. On each test day, one aliquot was thawed and diluted 20-fold with PBS (pH 7.2), and used as stock for formulation of test doses. Compound C was administered subcutaneously.
Under general anesthesia with continuous inhalation of isoflurane, surgery was performed with aseptic procedures in surgery unit. The skin at the area of the lower lumber and sacral level of the rat was shaved and disinfected with betadine and alcohol. Sterile ophthalmic ointment was used to lubricate the eyes. Animals were observed continuously for the level of anesthesia, testing for the animal's reflex response to tail or paw pinch and closely monitoring the animal's breathing. A heating pad was used to maintain body temperature at 37° C. while the animals recovered from anesthesia. A left longitudinal incision at the level next to the vertebral column was made and the left paraspinal muscles were separated. The transverse process of L6 was removed and nearby connective tissue cleaned to expose L5 and L6 spinal nerves. After the nerves were isolated and clearly visualized, 4-0 silk threads were used to ligate the left L5. The muscles were sutured with 4-0 silk threads and the wound closed by staples. All rats received an analgesic (buprenorphine, 0.05 mg/kg, s.c.) immediately before and 6 hours after surgery. Each rat was monitored until awake and moving freely around the recovery chamber. Animals were then single-housed for the duration of the study. Rats were allowed to recover for 2 weeks after surgery prior to testing.
Withdrawal from a mechanical stimulus was measured by applying von Frey (VF) filaments of ascending bending force to the plantar surface of the hind paws (ipsilateral and contralateral). A positive response was defined as withdrawal from the von Frey filament. Confirmation of the paw withdrawal threshold (PWT) is tested by assessing the response to the filament above and below the withdrawal response.
Rats were brought to the experimental room and allowed to habituate in the room for one hour prior to testing, and acclimated to the observation chambers for 15 minutes prior to taking PWT measurements.
Pre-operative baseline testing: Prior to surgery, all rats were tested using the VF test.
Post-operative baseline testing: On Day 14 following surgery, baseline responses were taken from all surgically-operated rats, and an ipsilateral PWT greater than 4.5 g was used as an exclusion criterion (13 rats excluded). Rats were subsequently balanced and assigned to treatment groups (n=10 per group) based on their post-op PWT values. […]

[1] = system: mouse embryonic stem cells derived cardiomyocytes (mES-CM); format: cell-based
[2] = baseline of group assigned to 100 mg/kg, mean ± SEM

Compound | ipsilateral paw withdrawal threshold compared to vehicle, chronic (spinal-ligated rats; 100 mg/kg orally q.d. 5 days, Day 21, all time points) | ipsilateral paw withdrawal threshold compared to vehicle, acute (spinal-ligated rats; 100 mg/kg orally, Day 17, data collapsed across 1 and 3 hour time points) | time dependence of effect on ipsilateral paw withdrawal threshold, chronic (spinal-ligated rats; 100 mg/kg orally, Day 21, 1 hr. versus 3 hr. post-administration) | ipsilateral paw withdrawal threshold (PWT), summary (spinal-ligated rats; 100 mg/kg, acute or 5-day administration, 1 and 3 hours following administration) | Contralateral paw withdrawal threshold prior to drug administration (spinal-ligated rats; [2]) | Ipsilateral paw withdrawal threshold prior to drug administration (spinal-ligated rats; [2]) | signs of sedation or toxicity (spinal-ligated rats; during pretreatment or testing, gabapentin 100 mg/kg orally, compound C 0.25, 0.625, 1.25 mg/kg subcutaneously) | effect of positive control on action potential generation in cardiomyocytes [1]
NCC1(CC(=O)O)CCCCC1 [Gabapentin] | significantly increased | significantly increased | significantly greater at 1 hr. compared to 3 hr. post-administration | significantly increased | 48.70 ± 5.83 | 2.94 ± 0.29 | not observed | –
NC1=N[C@H](O)[C@H]2[C@H]3O[C@]4(O)O[C@@H]([C@@H](O)[C@@]2(N1)[C@@H]4O)[C@]3(O)CO [TTX, Tetrodotoxin] | – | – | – | – | – | – | – | only the higher dose inhibited action potential generation; also recorded: quite evident; also recorded: significant action
